# Test results from patent US10099993B2, “Metabotropic glutamate receptor positive allosteric modulators (PAMS) and uses thereof” (Sanford-Burnham Medical Research Institute, priority 2014, dated 2018).
# “Also recorded” adds a separate entry of the source. Like-named read-outs stand apart in the source and are kept apart here.
# Key:
# mGlu8 = mGlu8 (Rattus norvegicus (Rat), UniProt P70579); experiment: mGlu8 GIRK thallium flux assay; type: cell-based; details: full agonist concentration-response ± 10 μM compound
# mGlu6 = mGlu6 (Rattus norvegicus (Rat), UniProt P35349); experiment: mGlu6 GIRK thallium flux assay; type: cell-based; details: full agonist concentration-response ± 10 μM compound
# mGlu5 = mGlu5 (Rattus norvegicus (Rat), UniProt P31424); experiment: mGlu5 calcium assay; type: cell-based; details: full agonist concentration-response ± 10 μM compound
# mGlu1 = mGlu1 (Rattus norvegicus (Rat), UniProt P23385); experiment: mGlu1 calcium assay; type: cell-based; details: full agonist concentration-response ± 10 μM compound
# mGlu3 [1] = molecular target: T1, mGlu3 (Rattus norvegicus (Rat), UniProt P31422); experiment: mGlu3 GIRK thallium flux assay;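 note: kinetic fluorescence slope read shortly after thallium plus agonist addition, scaled between vehicle and maximal agonist control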
# [2] = In vivo PK in rats, i.p. administration; details: 10 mg/kg; for Kp at 30 min: rat, brain and plasma, ip
# mGlu7 = mGlu7 (Rattus norvegicus (Rat), UniProt P35400); experiment: mGlu7 GIRK thallium flux assay; type: cell-based; details: full L-AP4 concentration-response ± 10 μM compound
# mGlu3 [3] = molecular target: T1, mGlu3; experiment: TREx293 mGlu3 Gα15 calcium assay; type: cell-based; details: presence of an EC20 of glutamate, 20 ng/mL Tet for 20 h
# Method: In order to generate a tetracycline (Tet)-inducible rat mGlu3 stable cell line to be used for a calcium mobilization assay, TREx293 cells (Invitrogen) were transfected with mouse Gα15-pCMV6 plasmid (Origene) using Fugene6 (Promega). The cells were selected for Gα15 expression with 1 mg/mL G418 in the presence of 10 μg/ml blasticidin to maintain Tet Repressor expression. Two weeks after the selection, polyclonal TREx293 Gα15 cells were obtained. The entire coding sequence of rat mGlu3 was amplified by polymerase chain reaction (PCR) and cloned into the Tet-inducible expression plasmid pcDNA5/TO (Invitrogen). Rat mGlu3-pcDNA5/TO was transfected into TREx293 Gα15 cells and selected for mGlu3 expression with 200 μg/ml hygromycin in the presence of G418 and blasticidin.
# For mGlu3 the TREx tetracycline-inducible system (Invitrogen) was utilized. […] In the absence of Tet, no measurable expression of mGlu3 is detected either by Western blot (FIG. 3A) or by functional response to calcium mobilization (FIG. 3B). […] Data were analyzed using nonlinear regression. Data were obtained from three separate experiments performed in triplicate, normalized to the response to 100 μM glutamate in each experiment, and are expressed as the mean±SEM.
# [4] = In vivo PK in rats, p.o. administration; parameters: species or system rat; details: 20 mg/kg
# [5] = In vivo PK in rats, i.v. administration; parameters: species or system rat; details: 2 mg/kg
# mGlu2 [6] = molecular target: T2, mGlu2 (Rattus norvegicus (Rat), UniProt P31421); experiment: mGlu2 GIRK thallium flux assay;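 note: Cell-based assay, rate of fluorescence rise right after thallium plus agonist addition read on a kinetic imaging plate reader, normalized to vehicle and maximal agonist control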
# mGlu4 = mGlu4 (Rattus norvegicus (Rat), UniProt P31423); experiment: mGlu4 GIRK thallium flux assay; type: cell-based; details: full agonist concentration-response ± 10 μM compound
# mGlu2 [7] = molecular target: T2, mGlu2; experiment: HEK293A mGlu2 Gα15 calcium assay; type: cell-based; details: presence of an EC20 of glutamate
# spinal cord GDNF levels = details: 0.5, 1 or 5 mg/kg i.p., wild-type and mGlu2 knockout mice; cited from earlier work
# reserpine-treated rat = details: cited from earlier work
# [8] = system: 6-OHDA lesioned nigrostriatal tract; details: cited from earlier work
# [9] = system: cocaine-maintained responding in rats; details: previously shown (Jin, X. et al. 2010); cited from earlier work
# [10] = system: GDNF mRNA and protein levels; details: 0.25-3 mg/kg, i.p.; cited from earlier work
# SOD1G93A mice = details: continuous treatment 1 or 5 mg/kg/day; cited from earlier work
# [11] = system: cultured spinal cord astrocytes; details: wild-type and mGlu2 knockout mice, not mGlu3 knockout; cited from earlier work
# R6/2 mice = details: cited from earlier work
# [12] = system: nigrostriatal damage induced by 1-methyl-4-phenyl-1,2,3,6-tetrahydropyridine; details: acute or repeated injections 0.25 or 3 mg/kg, i.p., mice; cited from earlier work
# SMI-32+ motor neurons = details: mixed cultures of spinal cord cells; cited from earlier work
# [13] = system: food-maintained responding in rats; details: previously shown (Jin, X. et al. 2010); cited from earlier work
# [14] = system: food-maintained responding in rats; experiment: Food self-administration experiment; type: in vivo, rat; details: rats, 0, 10, 20, 40 mg/kg i.p., 60 min pretreatment
# Method: (§1) Subjects. Male Wistar rats (Charles River Laboratories, Raleigh, N.C.) weighing 300-350 g at the beginning of each experiment were housed in pairs in standard rat Plexiglas cages with food and water available ad libitum, except during food training and the food self-administration experiment (see below). Rats were maintained in a climate-controlled room at 21° C. on a 12 h reverse light/dark cycle and all experiments were conducted during the dark (i.e., active) phase (7:00 h-19:00 h) of the cycle under dim red lighting. All procedures were conducted in accordance with the guidelines from the National Institutes of Health and the Association for the Assessment and Accreditation of Laboratory Animal Care and were approved by the Institutional Animal Care and Use Committee.
# Food Training. Details regarding the experimental procedures have been described previously.^37 All rats were placed under food restriction (20 g food/day) and trained during daily 1 hr sessions to lever press for 45 mg food pellets (Research Diets, New Brunswick, N.J.) under a fixed ratio 1 reinforcement schedule with a 1 s time-out period (FR1 TO1s). Successful responses were followed by illumination of a cue light for the duration of the time-out period, when lever presses had no consequence. […]
# (§2) Statistical Analyses. […] Significant effects were further analyzed with Tukey post hoc tests. […]
# [15] = system: cocaine-maintained responding in rats; experiment: Cocaine self-administration experiment; type: in vivo, rat
# Method: as §1
# Drugs. Cocaine hydrochloride (National Institute on Drug Abuse, Bethesda, Md.) was dissolved in sterile physiological saline and filtered through a 0.22 μm syringe filter (Fisher Scientific, Pittsburgh, Pa.) for sterilization purposes.
# Food Training. […]
# as §2
# [16] = compound concentration-response in presence and absence of EC20 glutamate
# [17] = full agonist concentration-response ± 10 μM compound
# T1 sequence (P31422 23-879): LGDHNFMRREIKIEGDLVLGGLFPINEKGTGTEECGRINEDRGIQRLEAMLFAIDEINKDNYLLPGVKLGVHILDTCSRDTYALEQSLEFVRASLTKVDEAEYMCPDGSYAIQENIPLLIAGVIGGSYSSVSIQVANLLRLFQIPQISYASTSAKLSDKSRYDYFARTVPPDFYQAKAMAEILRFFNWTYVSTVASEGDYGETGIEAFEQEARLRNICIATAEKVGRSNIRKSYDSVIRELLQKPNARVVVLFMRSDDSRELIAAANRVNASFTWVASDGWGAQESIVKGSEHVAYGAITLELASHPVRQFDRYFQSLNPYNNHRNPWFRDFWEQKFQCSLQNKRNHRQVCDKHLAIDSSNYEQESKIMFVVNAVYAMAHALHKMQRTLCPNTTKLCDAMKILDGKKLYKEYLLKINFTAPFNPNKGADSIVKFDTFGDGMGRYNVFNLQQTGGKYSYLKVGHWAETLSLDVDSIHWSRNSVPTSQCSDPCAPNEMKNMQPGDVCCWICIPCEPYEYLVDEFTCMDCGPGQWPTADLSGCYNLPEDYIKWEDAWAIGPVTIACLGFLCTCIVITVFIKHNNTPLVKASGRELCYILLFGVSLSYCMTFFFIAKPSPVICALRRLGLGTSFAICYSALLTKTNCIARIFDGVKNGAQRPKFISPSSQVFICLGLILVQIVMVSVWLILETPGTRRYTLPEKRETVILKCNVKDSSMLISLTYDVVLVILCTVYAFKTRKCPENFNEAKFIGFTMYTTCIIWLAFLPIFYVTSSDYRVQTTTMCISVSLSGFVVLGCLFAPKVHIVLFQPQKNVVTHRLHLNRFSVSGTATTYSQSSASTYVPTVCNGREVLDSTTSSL
# T2 sequence (P31421 19-872): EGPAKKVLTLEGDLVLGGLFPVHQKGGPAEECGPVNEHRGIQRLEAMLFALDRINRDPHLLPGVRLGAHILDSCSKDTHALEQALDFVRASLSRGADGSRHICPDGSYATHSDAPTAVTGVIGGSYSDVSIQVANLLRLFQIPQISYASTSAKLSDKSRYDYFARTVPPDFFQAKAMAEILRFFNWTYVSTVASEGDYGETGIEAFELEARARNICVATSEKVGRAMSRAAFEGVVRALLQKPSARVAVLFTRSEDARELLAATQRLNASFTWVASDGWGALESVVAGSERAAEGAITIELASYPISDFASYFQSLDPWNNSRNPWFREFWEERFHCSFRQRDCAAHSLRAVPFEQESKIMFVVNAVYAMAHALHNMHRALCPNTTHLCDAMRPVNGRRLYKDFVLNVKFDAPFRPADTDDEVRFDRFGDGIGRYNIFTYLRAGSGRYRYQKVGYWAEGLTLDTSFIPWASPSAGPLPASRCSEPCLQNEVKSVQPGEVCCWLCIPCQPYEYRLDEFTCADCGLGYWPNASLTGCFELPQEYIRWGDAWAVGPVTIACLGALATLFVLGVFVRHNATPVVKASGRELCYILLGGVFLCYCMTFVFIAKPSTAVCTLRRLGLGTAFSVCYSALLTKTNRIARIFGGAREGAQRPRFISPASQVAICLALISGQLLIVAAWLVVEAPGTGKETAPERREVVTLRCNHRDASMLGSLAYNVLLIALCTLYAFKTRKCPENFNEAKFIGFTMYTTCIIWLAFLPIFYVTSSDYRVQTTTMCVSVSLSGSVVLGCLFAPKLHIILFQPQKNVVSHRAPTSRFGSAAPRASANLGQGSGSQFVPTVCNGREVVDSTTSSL
# mGlu4, sequence (P31423 33-912): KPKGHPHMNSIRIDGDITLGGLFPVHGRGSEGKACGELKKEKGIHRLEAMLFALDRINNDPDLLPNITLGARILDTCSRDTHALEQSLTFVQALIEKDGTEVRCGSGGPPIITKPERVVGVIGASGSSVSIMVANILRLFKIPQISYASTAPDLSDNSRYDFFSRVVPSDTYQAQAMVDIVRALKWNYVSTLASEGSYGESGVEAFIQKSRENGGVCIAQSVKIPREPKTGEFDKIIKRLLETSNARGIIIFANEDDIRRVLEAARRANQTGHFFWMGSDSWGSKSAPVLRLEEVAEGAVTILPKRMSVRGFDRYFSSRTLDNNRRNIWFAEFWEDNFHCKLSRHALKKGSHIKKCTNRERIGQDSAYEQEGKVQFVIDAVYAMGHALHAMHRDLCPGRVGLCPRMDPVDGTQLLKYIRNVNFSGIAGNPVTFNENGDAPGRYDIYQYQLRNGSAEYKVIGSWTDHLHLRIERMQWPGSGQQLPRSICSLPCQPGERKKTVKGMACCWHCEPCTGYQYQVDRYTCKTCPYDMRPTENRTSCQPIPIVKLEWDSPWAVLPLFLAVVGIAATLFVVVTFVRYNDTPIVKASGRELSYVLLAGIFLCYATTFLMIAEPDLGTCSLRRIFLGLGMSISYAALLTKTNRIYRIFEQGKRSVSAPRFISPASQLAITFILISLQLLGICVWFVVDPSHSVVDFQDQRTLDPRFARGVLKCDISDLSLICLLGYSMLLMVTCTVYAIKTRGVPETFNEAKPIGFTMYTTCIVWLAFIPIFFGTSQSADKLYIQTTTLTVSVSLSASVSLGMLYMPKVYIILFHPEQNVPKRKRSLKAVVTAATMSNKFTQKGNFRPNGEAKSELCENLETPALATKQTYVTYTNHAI
# mGlu1, sequence (P23385 19-1199): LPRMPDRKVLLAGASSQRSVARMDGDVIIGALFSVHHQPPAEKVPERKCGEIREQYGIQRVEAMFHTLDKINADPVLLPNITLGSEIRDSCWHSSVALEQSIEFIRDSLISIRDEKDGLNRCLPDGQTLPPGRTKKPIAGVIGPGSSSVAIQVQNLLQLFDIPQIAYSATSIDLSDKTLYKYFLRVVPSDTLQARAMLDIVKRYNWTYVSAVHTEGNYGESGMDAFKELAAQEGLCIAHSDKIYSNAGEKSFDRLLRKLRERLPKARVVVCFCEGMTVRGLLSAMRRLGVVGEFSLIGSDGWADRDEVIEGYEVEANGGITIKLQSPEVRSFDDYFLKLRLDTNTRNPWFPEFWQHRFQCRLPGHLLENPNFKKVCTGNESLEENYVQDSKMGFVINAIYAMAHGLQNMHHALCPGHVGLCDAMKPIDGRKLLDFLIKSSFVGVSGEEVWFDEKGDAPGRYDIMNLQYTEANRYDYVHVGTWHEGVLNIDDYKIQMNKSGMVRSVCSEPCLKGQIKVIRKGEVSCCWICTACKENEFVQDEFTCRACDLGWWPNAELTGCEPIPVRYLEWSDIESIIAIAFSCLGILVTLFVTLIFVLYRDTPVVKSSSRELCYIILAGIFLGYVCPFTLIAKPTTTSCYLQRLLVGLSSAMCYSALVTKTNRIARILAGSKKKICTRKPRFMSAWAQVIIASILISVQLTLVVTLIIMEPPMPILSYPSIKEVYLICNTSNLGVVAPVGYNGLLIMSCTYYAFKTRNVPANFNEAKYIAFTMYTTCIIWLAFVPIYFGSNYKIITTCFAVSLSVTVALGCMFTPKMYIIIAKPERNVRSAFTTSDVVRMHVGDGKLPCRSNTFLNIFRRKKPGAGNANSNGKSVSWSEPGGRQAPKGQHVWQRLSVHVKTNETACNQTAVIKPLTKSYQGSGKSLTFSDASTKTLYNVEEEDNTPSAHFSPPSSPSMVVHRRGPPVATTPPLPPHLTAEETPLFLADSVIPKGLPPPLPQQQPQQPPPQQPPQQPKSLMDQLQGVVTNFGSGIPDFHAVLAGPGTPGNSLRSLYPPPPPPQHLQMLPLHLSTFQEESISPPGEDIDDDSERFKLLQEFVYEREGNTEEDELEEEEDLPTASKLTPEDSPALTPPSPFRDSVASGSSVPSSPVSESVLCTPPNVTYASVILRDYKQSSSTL
# mGlu6, sequence (P35349 24-871): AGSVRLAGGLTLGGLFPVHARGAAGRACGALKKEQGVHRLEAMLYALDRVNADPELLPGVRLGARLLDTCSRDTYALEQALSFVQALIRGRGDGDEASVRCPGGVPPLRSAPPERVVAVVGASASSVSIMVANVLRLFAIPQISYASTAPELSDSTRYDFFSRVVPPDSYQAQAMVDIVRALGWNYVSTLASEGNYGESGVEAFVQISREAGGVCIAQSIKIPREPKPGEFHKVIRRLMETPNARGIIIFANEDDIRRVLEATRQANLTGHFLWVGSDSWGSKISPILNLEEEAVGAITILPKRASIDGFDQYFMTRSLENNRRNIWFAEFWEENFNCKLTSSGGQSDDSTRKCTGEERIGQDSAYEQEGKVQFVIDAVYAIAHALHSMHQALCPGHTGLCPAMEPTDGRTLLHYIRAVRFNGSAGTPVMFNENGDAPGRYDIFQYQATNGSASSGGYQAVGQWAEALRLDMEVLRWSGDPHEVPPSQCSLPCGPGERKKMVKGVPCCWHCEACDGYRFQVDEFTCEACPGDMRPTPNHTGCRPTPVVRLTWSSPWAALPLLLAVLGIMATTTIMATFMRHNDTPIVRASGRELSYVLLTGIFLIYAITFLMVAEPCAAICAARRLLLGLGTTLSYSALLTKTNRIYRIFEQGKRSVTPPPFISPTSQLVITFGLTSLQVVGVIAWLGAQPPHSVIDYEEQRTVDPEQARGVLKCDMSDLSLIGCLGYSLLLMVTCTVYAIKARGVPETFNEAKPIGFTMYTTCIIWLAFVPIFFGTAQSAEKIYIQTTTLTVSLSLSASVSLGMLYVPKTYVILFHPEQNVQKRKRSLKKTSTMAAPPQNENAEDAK
smiles,measurement,setting,value
"COc1cc(C(=O)O)ccc1OCCCCOc1ccc(C(=O)CC(C)C)c(O)c1C [Compound 44, 4-{4-[3-Hydroxy-2-methyl-4-(3-methylbutanoyl)phenoxy]butoxy}-3-methoxybenzoic acid]",General activity at mGlu8,mGlu8,inactive^b
same,General activity at mGlu6,mGlu6,inactive^b
same,General activity at mGlu5,mGlu5,inactive^b
same,General activity at mGlu1,mGlu1,inactive^b
same,activity toward mGlu3 in GIRK thallium-flux assay,mGlu3 [1]; [16],PAM activity
same,General activity at mGlu3,mGlu3 [1]; [17],PAM
same,"Emin, minimal response of the concentration-response of agonist","mGlu3 [1]; mGlu3, 10 μM compound",Emin = 4%
same,Kp at 30 min,[2],0.03 ± 0.01
same,"Brain, maximum concentration","[2]; rats, i.p., Tmax 30 min",0.23 ± 0.10 µM
same,"Plasma, maximum concentration","[2]; rats, i.p., Tmax 30 min",10.57 ± 2.52 µM
same,General activity at mGlu7,mGlu7,inactive^b
same,activity in TREx293 mGlu3 Gα15 calcium assay,mGlu3 [3],demonstrates mGlu3 PAM activity
same,AUC(0→t),[4],1274.6 ± 246.3 (μmol/L) min
same,"F, oral bioavailability",[4],41.9%
same,Plasma,[4]; harvested at or near the Tmax,16.38 ± 1.1 µM
same,Kp,"[4]; rat, brain and plasma, po, read-out: Brain:Plasma ratio",0.05 ± 0.01
same,Tmax,"[4]; rat, plasma, po",1.5 h
same,Cmax,"[4]; rat, po, plasma",2.75 ± 0.47 µM
same,AUC(0→t),[5],304.6 ± 25.8 (μmol/L)*min
same,Cmax,"[5]; rat, iv, plasma",6.43 ± 0.39 µM
same,Vd,"[5]; rat, plasma, iv, read-out: Vdss",0.55 ± 0.04 L/kg
same,intrinsic agonist activity towards mGlu2 (Agonist Mode),mGlu2 [6]; absence of an EC20 concentration of agonist,intrinsic agonist activity
same,activity toward mGlu2 in GIRK thallium-flux assay,mGlu2 [6]; [16],Ago-PAM activity
same,General activity at mGlu2,mGlu2 [6]; [17],Ago-PAM
same,"Emin, minimal response of the concentration-response of agonist","mGlu2 [6]; mGlu2, 10 μM compound",Emin = 90%
same,General activity at mGlu4,mGlu4,inactive^b
same,activity in HEK293A mGlu2 Gα15 calcium assay,mGlu2 [7],behaves as a PAM; also recorded: PAM activity
N[C@@]1(C(=O)O)CO[C@H]2[C@H](C(=O)O)[C@H]21 [LY379268],spinal cord GDNF levels,spinal cord GDNF levels,enhanced spinal cord GDNF levels
same,locomotor activity in reserpine-treated rat,"reserpine-treated rat; intracerebroventricular 1, 5, 10, 20 nmol/2 μl",dose-dependent increase in locomotor activity
same,reserpine-induced akinesia,"reserpine-treated rat; systemic 0.1, 1, 10 mg/kg ip",did not reverse reserpine-induced akinesia
same,protection against nigral infusion of 6-OHDA,[8]; 10 mg/kg/day ip for 7 days,provided some protection against nigral infusion of 6-OHDA
same,protection against striatal infusion of 6-OHDA,[8]; 10 mg/kg/day ip for 21 days,significant protection in the striatum
same,rotational behaviour 1 month after unilateral 6-OHDA lesioning,"[8]; systemic 0.1, 1, 10 mg/kg ip",failed to effect rotational behaviour
same,cocaine-maintained responding,[9],decrease both cocaine- and food-maintained responding
same,GDNF mRNA and protein levels in the mouse brain,[10],increased
same,neurological disability in SOD1G93A mice,SOD1G93A mice,beneficial effect on neurological disability
same,GDNF levels in cultured spinal cord astrocytes,[11],enhanced GDNF levels
same,striatal neuron loss,"R6/2 mice; R6/2 mice, 20 mg/kg s.c. daily, at 10 weeks",rescue of a 15-20% striatal neuron loss
same,phenotype in R6/2 mice,R6/2 mice; daily s.c. MTD 20 mg/kg beginning at 4 weeks,dramatically improves the phenotype
same,protection against MPTP-induced nigrostriatal damage,[12],highly protective against nigrostriatal damage
same,protection of SMI-32+ motor neurons against excitotoxic death,SMI-32+ motor neurons,protected
same,food-maintained responding,[13],decrease both cocaine- and food-maintained responding
"Cc1c(OCCCCOc2ccc(C(=O)CC(C)(C)C)c(O)c2C)cccc1C(=O)O [compound 74, 3-(4-(4-(3,3-Dimethylbutanoyl)-3-hydroxy-2-methylphenoxy)butoxy)-2-methylbenzoic acid]",Kp at 30 min,[2],0.03 ± 0.01
same,food-maintained responding,[14],dose-dependently decreased
same,cocaine-maintained responding,"[15]; rats, 0, 10, 20, 40 mg/kg i.p., 60 min pretreatment",dose-dependently decreased; also recorded: decreasing cocaine-maintained responding
same,cocaine-maintained responding compared with food-maintained responding,"[15]; rats, highest dose tested 40 mg/kg i.p., p<0.05",decreased to a greater extent than food-maintained responding; also recorded: cocaine-maintained responding was significantly lower than food-maintained responding
